Experimental data taken from patent publication US12173306B2, “Codon-optimized reduced-size ATP7A CDNA and uses for treatment of copper transport disorders” (The United States of America, as represented by the …, priority 2015, dated 2024).

Test system: C57BL/6-Atp7a^mo-br mice (mo-br mice)
Test: Survival in a mouse model of Menkes disease (mo-br mice)
Format: in vivo
Settings: single treatments, FIG. 5
Excerpt: FIG. 5 is a graph showing survival of mo-br mice treated with rAAV9-co-rsATP7A (AAV9) and copper histidinate, untreated (UT), treated with AAV9co alone, or treated with copper histidinate alone.
FIG. 6 is a graph showing survival to weaning (dark gray bars) or prolonged survival (light gray bars) in untreated (UT) mice, mice treated with AAV5-rsATP7A and copper histidinate (AAV5+Cu), AAVrh10-rsATP7A and copper histidinate (AAVrh10+copper), AAV9-rsATP7A and copper (AAV9+Cu), and AAV9 co-rsATP7A and copper (AAV9co+Cu). rsATP7A is reduced-size ATP7A cDNA (native sequence (non-codon-optimized)).
The AAV9 co-rsATP7A described in Example 2 was administered to C57BL/6-Atp7a^mo-br mice (mo-br mice) by intracerebroventricular injection. The mice were injected bilaterally on day two of life with 1.6×10^9 vg in 5 μl of lactated Ringer's solution. Some of the mice were also treated with copper histidinate (15 μg) by subcutaneous injection during the first week of life (5 μg, d4-6). About 70% of the mice treated with combination AAV9 co-rsATP7A and copper histidinate survived at least 100 days (FIG. 5).
Different AAV serotypes were also tested for efficacy in mo-br mice.

Substance: copper histidinate
- survival time (did not survive past): ≤ 28 days
